In article PMC3827738 (Biochimica et biophysica acta, 2010) one finds IC50 data, which are given here for 1 compound.

As usually defined, the IC50 is the concentration that gives 50% inhibition.

The test concerns the target cytochrome bo3 (cbo3), ubiquinol oxidase (Escherichia coli, UniProt P0ABI8). It counts as biochemical.

Sequence of cytochrome bo3 (cbo3), ubiquinol oxidase (P0ABI8 whole entry): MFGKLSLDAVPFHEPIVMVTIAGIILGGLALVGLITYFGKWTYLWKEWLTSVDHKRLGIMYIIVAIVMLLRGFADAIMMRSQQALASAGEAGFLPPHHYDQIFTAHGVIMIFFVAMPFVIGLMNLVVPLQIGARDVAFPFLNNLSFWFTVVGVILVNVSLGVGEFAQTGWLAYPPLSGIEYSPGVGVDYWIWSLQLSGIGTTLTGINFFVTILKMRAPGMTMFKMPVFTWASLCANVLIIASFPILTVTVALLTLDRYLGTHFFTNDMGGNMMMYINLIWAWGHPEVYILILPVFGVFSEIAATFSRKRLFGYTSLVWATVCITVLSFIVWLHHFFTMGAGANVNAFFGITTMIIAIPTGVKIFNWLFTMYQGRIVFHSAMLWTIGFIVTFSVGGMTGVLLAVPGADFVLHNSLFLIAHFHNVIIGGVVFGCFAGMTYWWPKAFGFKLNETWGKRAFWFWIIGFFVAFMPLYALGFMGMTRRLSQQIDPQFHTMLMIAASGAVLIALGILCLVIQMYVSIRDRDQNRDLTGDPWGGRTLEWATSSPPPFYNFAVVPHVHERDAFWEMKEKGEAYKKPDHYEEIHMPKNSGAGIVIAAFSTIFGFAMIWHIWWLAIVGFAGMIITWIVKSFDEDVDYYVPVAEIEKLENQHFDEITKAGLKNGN
Sequence of cytochrome bo3 (cbo3), ubiquinol oxidase (P0ABJ1 25-315 partner): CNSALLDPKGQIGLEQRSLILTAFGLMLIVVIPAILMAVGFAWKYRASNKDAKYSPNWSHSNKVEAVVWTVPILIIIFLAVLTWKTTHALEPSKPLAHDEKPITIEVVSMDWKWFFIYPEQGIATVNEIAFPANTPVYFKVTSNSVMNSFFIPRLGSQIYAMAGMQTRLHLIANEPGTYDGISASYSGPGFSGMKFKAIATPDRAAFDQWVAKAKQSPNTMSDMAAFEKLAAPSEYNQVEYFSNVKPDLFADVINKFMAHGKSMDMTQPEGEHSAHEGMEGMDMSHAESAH
Sequence of cytochrome bo3 (cbo3), ubiquinol oxidase (P0ABJ3 whole entry partner): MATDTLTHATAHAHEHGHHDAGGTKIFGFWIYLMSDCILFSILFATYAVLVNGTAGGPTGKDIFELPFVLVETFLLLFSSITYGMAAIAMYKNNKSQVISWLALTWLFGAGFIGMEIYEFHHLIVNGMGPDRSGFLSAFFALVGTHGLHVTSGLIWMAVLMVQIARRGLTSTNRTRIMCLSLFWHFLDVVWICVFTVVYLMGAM
Sequence of cytochrome bo3 (cbo3), ubiquinol oxidase (P0ABJ6 whole entry partner): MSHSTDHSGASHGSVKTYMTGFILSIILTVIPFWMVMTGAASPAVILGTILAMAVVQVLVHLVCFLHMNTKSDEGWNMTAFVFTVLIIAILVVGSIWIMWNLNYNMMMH

In the case of `CCCCCCCc1cc(O)c2ccccc2[n+]1[O-]` [2-n-Heptyl-4-hydroxyquinoline N-oxide], the IC50 was 28.7 ± 2.1 µM.
